# Data from ChEMBL document CHEMBL1828590 (J Med Chem, 2011).
# The source made the active and inactive calls. The calls are words filed in the database; no cut-off is given here.
# Columns and labels:
# [1] = AUC (0 to infinity) in Beagle dog at 10 mg/kg, po; type: ADME, organism-based, Canis lupus familiaris; design: time infinity, dose 10 mg/kg, route oral; conditions: plasma
# MV4-11 = assay: Antitumor activity against human MV4-11 cells xenografted in nude BALB/c mouse assessed as tumor growth inhibition at 50 mg/kg, po qd for 21 days measured on day 21; type: functional; conditions: MV4-11, 504 h, read-out: TGI
# Mus musculus [2] = assay: Toxicity in nude BALB/c mouse xenografted with human MV4-11 cells assessed as maximum body weight loss at 25 mg/kg, po QD for 21 days measured on day 12; type: organism-based; design: dose 25 mg/kg, route oral; conditions: in vivo, 504 h
# [3] = Solubility of the compound in 0.9% NaCl; type: physicochemical
# Mus musculus [4] = assay: Toxicity in nude BALB/c mouse xenografted with human Ramos cells assessed as mortality at 50 mg/kg, po QD for 21 days measured on day 15; type: organism-based; design: dose 50 mg/kg, route oral; conditions: in vivo, 504 h
# [5] = Half life in rat liver microsomes; type: ADME, Microsome
# [6] = AUC (0 to infinity) in Beagle dog at 2 mg/kg, iv; type: ADME, organism-based, Canis lupus familiaris; design: time infinity, dose 2 mg/kg, route intravenous; conditions: plasma
# [7] = Terminal half life in nude BALB/c mouse at 50 mg/kg, po; type: ADME, organism-based; design: dose 50 mg/kg, route oral; conditions: in vivo, read-out: beta t1/2 (converted)
# [8] = Time required for attaining concentration above IC50 of HCT116 in tumor of nude BALB/c mouse xenografted with HCT116 cells at 50 mg/kg, po administered as single dose; type: ADME, organism-based, Neoplasm, HCT-116; design: dose 50 mg/kg, route oral; conditions: in vivo
# [9] = Volume of distribution at steady state in nude BALB/c mouse at 10 mg/kg, iv; type: ADME, organism-based; design: dose 10 mg/kg, route intravenous; conditions: in vivo, read-out: Vdss
# PC-3 = assay: Antitumor activity against human PC3 cells xenografted in nude BALB/c mouse assessed as tumor growth inhibition at 50 mg/kg, po qd for 21 days measured on day 22; type: functional; conditions: read-out: TGI
# [10] = biological target: Matrix metalloproteinase-9 (Homo sapiens) (UniProt P14780); assay: Inhibition of MMP9 at 10 uM
# [11] = Apparent permeability from basolateral to apical side of human Caco2 cells; type: ADME, cell-based; conditions: Caco-2
# [12] = Terminal half life in Wistar rat at 2 mg/kg, iv; type: ADME, organism-based; design: dose 2 mg/kg, route intravenous; conditions: in vivo, read-out: beta t1/2 (converted)
# [13] = Solubility of the compound in phosphate buffer at pH 4.5; type: physicochemical
# Mus musculus [14] = assay: Toxicity in nude BALB/c mouse xenografted with human MV4-11 cells assessed as maximum body weight loss at 50 mg/kg, po QD for 21 days measured on day 19; type: organism-based; design: dose 50 mg/kg, route oral; conditions: in vivo, 504 h
# [15] = Half life in dog liver microsomes; type: ADME, Canis lupus familiaris, Microsome
# [16] = Half life in human liver microsomes; type: ADME, Microsome
# [17] = Cmax in Wistar rat at 10 mg/kg, po; type: ADME, organism-based; design: dose 10 mg/kg, route oral; conditions: in vivo
# Mus musculus [18] = assay: Toxicity in nude BALB/c mouse xenografted with human HCT116 cells assessed as body weight loss at 100 mg/kg, po QD for 21 days measured on day 19; type: organism-based, HCT-116; design: dose 100 mg/kg, route oral; conditions: in vivo, 504 h
# [19] = Terminal half life in Beagle dog at 2 mg/kg, iv; type: ADME, organism-based, Canis lupus familiaris; design: dose 2 mg/kg, route intravenous; conditions: in vivo, read-out: beta t1/2 (converted)
# [20] = Plasma protein binding in human at 1000 ng/mL; type: ADME, cell-free; conditions: read-out: PPB (converted)
# Mus musculus [21] = assay: Toxicity in nude BALB/c mouse xenografted with human A2780 cells assessed as maximum body weight loss at 50 mg/kg, po QD for 21 days measured on day 13; type: organism-based; design: dose 50 mg/kg, route oral; conditions: in vivo, 504 h
# Mus musculus [22] = assay: Toxicity in nude BALB/c mouse xenografted with human HCT116 cells assessed as body weight loss at 100 mg/kg, po QD for 21 days measured on day 20; type: organism-based, HCT-116; design: dose 100 mg/kg, route oral; conditions: in vivo, 504 h
# Mus musculus [23] = assay: Toxicity in nude BALB/c mouse xenografted with human Ramos cells assessed as maximum body weight loss at 50 mg/kg, po QD for 21 days measured on day 12; type: organism-based; design: dose 50 mg/kg, route oral; conditions: in vivo, 504 h
# [24] = Volume of distribution at steady state in Beagle dog at 2 mg/kg, iv; type: ADME, organism-based, Canis lupus familiaris; design: dose 2 mg/kg, route intravenous; conditions: in vivo, read-out: Vdss
# [25] = Apparent oral clearance in Wistar rat at 2 mg/kg, iv; type: ADME, organism-based; design: dose 2 mg/kg; conditions: in vivo
# A2780 = assay: Antitumor activity against human A2780 cells xenografted in nude BALB/c mouse assessed as tumor growth inhibition at 50 mg/kg, po qd for 21 days measured on day 9; type: functional; conditions: read-out: TGI
# [26] = Time required for attaining concentration above IC50 of HDAC1 in tumor of nude BALB/c mouse xenografted with HCT116 cells at 50 mg/kg, po administered as single dose; type: ADME, organism-based, Neoplasm, HCT-116; design: dose 50 mg/kg, route oral; conditions: in vivo
# [27] = Cmax in nude BALB/c mouse at 50 mg/kg, po; type: ADME, organism-based; design: dose 50 mg/kg, route oral; conditions: in vivo
# [28] = AUC (0 to infinity) in Wistar rat at 2 mg/kg, iv; type: ADME, organism-based; design: time infinity, dose 2 mg/kg, route intravenous; conditions: plasma
# Mus musculus [29] = assay: Toxicity in nude BALB/c mouse xenografted with human A2780 cells assessed as mortality at 100 mg/kg, po QD for 21 days measured on day 9; type: organism-based; design: dose 100 mg/kg, route oral; conditions: in vivo, 504 h
# [30] = Plasma protein binding in rat at 1000 ng/mL; type: ADME, cell-free; conditions: read-out: PPB (converted)
# [31] = Tmax in Beagle dog at 10 mg/kg, po; type: ADME, organism-based, Canis lupus familiaris; design: dose 10 mg/kg, route oral; conditions: in vivo
# [32] = AUC (0 to infinity) in Wistar rat at 10 mg/kg, po; type: ADME, organism-based; design: time infinity, dose 10 mg/kg, route oral; conditions: plasma
# [33] = Solubility of the compound in 1% methylcellulose/0.1% Tween 80; type: physicochemical
# [34] = Terminal half life in Wistar rat at 10 mg/kg, po; type: ADME, organism-based; design: dose 10 mg/kg, route oral; conditions: in vivo, read-out: beta t1/2 (converted)
# Mus musculus [35] = assay: Toxicity in nude BALB/c mouse xenografted with human MV4-11 cells assessed as maximum body weight loss at 25 mg/kg, po QD for 21 days measured on day 10; type: organism-based; design: dose 25 mg/kg, route oral; conditions: in vivo, 504 h
# HCT-116 [36] = assay: Antitumor activity against human HCT116 cells xenografted in nude BALB/c mouse assessed as tumor growth inhibition at 50 mg/kg, po qd for 21 days; type: functional; conditions: HCT-116, 504 h, read-out: TGI
# Mus musculus [37] = assay: Toxicity in nude BALB/c mouse xenografted with human HCT116 cells assessed as body weight loss at 50 mg/kg, po QD for 21 days measured on day 17; type: organism-based, HCT-116; design: dose 50 mg/kg, route oral; conditions: in vivo, 504 h
# [38] = biological target: Voltage-gated inwardly rectifying potassium channel KCNH2 (Homo sapiens, UniProt Q12809); assay: Displacement of [3H]-dofetilide from human ERG receptor at 10 uM
# [39] = Plasma protein binding in mouse at 1000 ng/mL; type: ADME, cell-free; conditions: read-out: PPB (converted)
# [40] = AUC (0 to infinity) in nude BALB/c mouse at 10 mg/kg, iv; type: ADME, organism-based; design: time infinity, dose 10 mg/kg, route intravenous; conditions: plasma
# HCT-116 [41] = assay: Antitumor activity against human HCT116 cells xenografted in nude BALB/c mouse assessed as tumor growth inhibition at 100 mg/kg, po qd for 21 days measured on day 15 measured on day 15; type: functional; conditions: read-out: TGI
# [42] = Volume of distribution at steady state in Wistar rat at 2 mg/kg, iv; type: ADME, organism-based; design: dose 2 mg/kg, route intravenous; conditions: in vivo, read-out: Vdss
# [43] = Tmax in nude BALB/c mouse at 50 mg/kg, po; type: ADME, organism-based; design: dose 50 mg/kg, route oral; conditions: in vivo
# [44] = 1-Octanol-sodium phosphate buffer distribution coefficient, log D of the compound at pH 7.4; type: physicochemical; conditions: 1-octanol/sodium phosphate buffer, read-out: logD
# Mus musculus [45] = assay: Toxicity in nude BALB/c mouse xenografted with human HCT116 cells assessed as body weight loss at 200 mg/kg, po QD for 21 days measured on day 6; type: organism-based, HCT-116; design: dose 200 mg/kg, route oral; conditions: in vivo, 504 h
# [46] = Apparent oral clearance in nude BALB/c mouse at 10 mg/kg, iv; type: ADME, organism-based; design: dose 10 mg/kg; conditions: in vivo
# [47] = Apparent oral clearance in nude BALB/c mouse at 50 mg/kg, po; type: ADME, organism-based; design: dose 50 mg/kg, route oral; conditions: in vivo
# [48] = Plasma protein binding in dog at 1000 ng/mL; type: ADME, cell-free, Canis lupus familiaris; conditions: read-out: PPB (converted)
# Matrix metalloproteinase-9 (Homo sapiens), sequence (P14780 whole entry): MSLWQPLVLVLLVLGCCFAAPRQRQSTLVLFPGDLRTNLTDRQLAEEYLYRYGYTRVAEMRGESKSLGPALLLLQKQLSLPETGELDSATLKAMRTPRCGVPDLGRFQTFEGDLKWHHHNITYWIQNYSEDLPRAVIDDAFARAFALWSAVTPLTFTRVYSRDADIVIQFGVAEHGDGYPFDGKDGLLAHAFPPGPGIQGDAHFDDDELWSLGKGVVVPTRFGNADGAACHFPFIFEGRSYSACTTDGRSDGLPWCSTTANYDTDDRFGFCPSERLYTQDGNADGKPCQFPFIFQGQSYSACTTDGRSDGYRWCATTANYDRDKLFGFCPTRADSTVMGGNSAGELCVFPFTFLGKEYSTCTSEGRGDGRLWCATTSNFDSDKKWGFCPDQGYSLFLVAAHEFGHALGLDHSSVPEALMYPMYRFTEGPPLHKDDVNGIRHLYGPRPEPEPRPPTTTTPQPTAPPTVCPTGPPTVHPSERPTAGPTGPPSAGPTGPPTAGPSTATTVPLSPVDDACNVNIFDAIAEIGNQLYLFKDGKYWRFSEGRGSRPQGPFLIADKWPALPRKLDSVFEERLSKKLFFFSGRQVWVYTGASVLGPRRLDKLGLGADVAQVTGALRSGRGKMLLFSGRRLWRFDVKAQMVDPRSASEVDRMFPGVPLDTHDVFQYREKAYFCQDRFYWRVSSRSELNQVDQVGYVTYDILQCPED
# Voltage-gated inwardly rectifying potassium channel KCNH2, sequence (Q12809 whole entry): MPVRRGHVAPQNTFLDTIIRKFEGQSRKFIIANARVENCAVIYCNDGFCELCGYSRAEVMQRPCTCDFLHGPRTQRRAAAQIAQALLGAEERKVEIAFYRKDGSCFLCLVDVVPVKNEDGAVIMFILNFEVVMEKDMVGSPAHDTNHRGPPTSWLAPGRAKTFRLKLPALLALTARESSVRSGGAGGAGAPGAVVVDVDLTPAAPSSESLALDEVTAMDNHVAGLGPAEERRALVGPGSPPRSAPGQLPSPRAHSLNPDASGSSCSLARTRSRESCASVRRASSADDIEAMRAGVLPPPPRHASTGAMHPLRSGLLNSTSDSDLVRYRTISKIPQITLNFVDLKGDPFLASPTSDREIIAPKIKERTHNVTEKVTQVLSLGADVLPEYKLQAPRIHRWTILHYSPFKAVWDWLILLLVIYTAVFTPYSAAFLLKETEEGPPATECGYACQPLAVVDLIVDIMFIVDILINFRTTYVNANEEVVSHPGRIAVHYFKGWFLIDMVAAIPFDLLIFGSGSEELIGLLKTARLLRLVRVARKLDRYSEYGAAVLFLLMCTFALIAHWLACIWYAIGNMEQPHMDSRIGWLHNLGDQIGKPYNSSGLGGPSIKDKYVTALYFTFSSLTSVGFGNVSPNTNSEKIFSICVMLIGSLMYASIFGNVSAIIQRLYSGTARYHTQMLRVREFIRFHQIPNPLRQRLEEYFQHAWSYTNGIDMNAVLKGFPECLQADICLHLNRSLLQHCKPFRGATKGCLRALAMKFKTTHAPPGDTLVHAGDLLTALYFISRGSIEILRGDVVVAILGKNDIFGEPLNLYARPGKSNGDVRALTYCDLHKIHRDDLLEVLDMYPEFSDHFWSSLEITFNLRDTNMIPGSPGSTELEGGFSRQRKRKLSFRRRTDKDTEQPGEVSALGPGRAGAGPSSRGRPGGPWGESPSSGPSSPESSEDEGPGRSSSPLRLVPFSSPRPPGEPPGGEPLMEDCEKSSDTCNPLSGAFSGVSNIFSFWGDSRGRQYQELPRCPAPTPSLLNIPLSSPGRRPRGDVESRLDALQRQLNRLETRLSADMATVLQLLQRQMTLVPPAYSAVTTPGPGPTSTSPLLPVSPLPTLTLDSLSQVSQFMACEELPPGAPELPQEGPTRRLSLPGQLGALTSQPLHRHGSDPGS
compound,measurement,setting,value
CCCCc1nc2cc(/C=C/C(=O)NO)ccc2n1CCN(CC)CC.Cl.Cl,AUC(0-inf),[1],10.5 µM·h
same,inhibition in vivo at 50 mg/kg,MV4-11,114%
same,Activity,Mus musculus [2],12%
same,solubility,[3],> 50 mg/mL
same,Activity,Mus musculus [4],Non-toxic
same,half-life,[5],7.8 min
same,AUC(0-inf),[6],3.22 µM·h
same,half-life,[7],146 min
same,Time,[8],5.1 h
same,Vd,[9],3.46 L/kg
same,inhibition in vivo at 50 mg/kg,PC-3,66%
same,inhibition,[10],inactive
same,Papp B→A,[11],19.4 ×10⁻⁶ cm/s
same,half-life,[12],53.4 min
same,solubility,[13],> 50 mg/mL
same,Activity,Mus musculus [14],7.1%
same,half-life,[15],> 60 min
same,half-life,[16],> 60 min
same,Cmax,[17],0.139 µM
same,Activity,Mus musculus [18],14.6%
same,half-life,[19],234 min
same,fraction unbound at 1000 ng/mL,[20],0.082
same,Activity,Mus musculus [21],8.9%
same,Activity,Mus musculus [22],19.9%
same,Activity,Mus musculus [23],3.7%
same,Vd,[24],4.24 L/kg
same,CL/F,[25],74.2 mL/min/kg
same,inhibition in vivo at 50 mg/kg,A2780,44%
same,Time,[26],10 h
same,Cmax,[27],6.1 µM
same,AUC(0-inf),[28],1.15 µM·h
same,Activity,Mus musculus [29],Non-toxic
same,fraction unbound at 1000 ng/mL,[30],0.07
same,Tmax,[31],45 min
same,AUC(0-inf),[32],0.181 µM·h
same,solubility,[33],> 25 mg/mL
same,half-life,[34],121 min
same,Activity,Mus musculus [35],10%
same,inhibition in vivo at 50 mg/kg,HCT-116 [36],66%
same,Activity,Mus musculus [37],6.4%
same,inhibition (INH),[38],Not Active
same,fraction unbound at 1000 ng/mL,[39],0.061
same,AUC(0-inf),[40],2.52 µM·h
same,inhibition in vivo at 100 mg/kg,HCT-116 [41],97%
same,Vd,[42],1.66 L/kg
same,Tmax,[43],10.2 min
same,logD,[44],2.07
same,Activity,Mus musculus [45],25.5%
same,CL/F,[46],153 mL/min/kg
same,CL/F,[47],453 mL/min/kg
same,fraction unbound at 1000 ng/mL,[48],0.165
